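These data come from cells grown in 96-well plates and exposed to compound for 48 hours at five concentrations. Abbreviation: GI50, concentration required for 50% inhibition of growth.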 Active and inactive are the calls of the source. No stated cut-off is given here; in the data, active = GI50 up to about 1.1 µM and inactive = higher.
Columns and labels:
Experiment in all cases: NCI anticancer screen, dose series, 48 h
[1] = system: SK-OV-3
[2] = system: HCC 2998
[3] = system: MOLT-4
[4] = system: RPMI-8226
[5] = system: ACHN
[6] = system: PC-3
[7] = system: HCT-116
[8] = system: SK-MEL-5
[9] = system: NCI/ADR-RES
[10] = system: EKVX
[11] = system: SF-268
[12] = system: COLO 205
[13] = system: KM12
[14] = system: LOX IMVI
[15] = system: MDA-MB-231
[16] = system: SF-539
[17] = system: SR
[18] = system: RXF 393
[19] = system: OVCAR-3
[20] = system: OVCAR-8

SMILES | GI50 [1] | GI50 [2] | GI50 [3] | GI50 [4] | GI50 [5] | GI50 [6] | GI50 [7] | GI50 [8] | GI50 [9] | GI50 [10] | GI50 [11] | GI50 [12] | GI50 [13] | GI50 [14] | GI50 [15] | GI50 [16] | GI50 [17] | GI50 [18] | GI50 [19] | GI50 [20]
CCCNC1=C2C[C@@H](C)C[C@@H](OC)[C@@H](OC(=O)CCCN)[C@H](C)/C=C(\C)[C@@H](OC(N)=O)[C@H](OC)/C=C\C=C(/C)C(=O)NC(=CC1=O)C2=O | 16.4 µM (inactive) | 18.8 µM (inactive) | 6.9 µM (inactive) | 5.94 µM (inactive) | 19.4 µM (inactive) | 12.6 µM (inactive) | 8.97 µM (inactive) | 9.29 µM (inactive) | 28.8 µM (inactive) | 17.6 µM (inactive) | 15.3 µM (inactive) | 3.52 µM (inactive) | 10.6 µM (inactive) | 16 µM (inactive) | 14.1 µM (inactive) | 20.3 µM (inactive) | 7.98 µM (inactive) | 11.8 µM (inactive) | 8.61 µM (inactive) | 20.7 µM (inactive)
C/C=N\n1c(C)c(C#N)c(C#N)c1N | > 100 µM (inactive) | > 100 µM (inactive) | > 100 µM (inactive) | > 100 µM (inactive) | > 100 µM (inactive) | > 100 µM (inactive) | > 100 µM (inactive) | > 100 µM (inactive) | > 100 µM (inactive) | > 100 µM (inactive) | > 100 µM (inactive) | > 100 µM (inactive) | > 100 µM (inactive) | > 100 µM (inactive) | > 100 µM (inactive) | > 100 µM (inactive) | > 100 µM (inactive) | > 100 µM (inactive) | > 100 µM (inactive) | > 100 µM (inactive)
COC(=O)/C=C1/OC(c2ccc(OC)cc2)=C(Cl)C1=O | 16.7 µM (inactive) | 21.3 µM (inactive) | 2.96 µM (inactive) | 3.95 µM (inactive) | 17.3 µM (inactive) | 15.2 µM (inactive) | 13.5 µM (inactive) | 14 µM (inactive) | 25.8 µM (inactive) | 19.1 µM (inactive) | 16.6 µM (inactive) | 9.91 µM (inactive) | 18.1 µM (inactive) | 7.94 µM (inactive) | 12.3 µM (inactive) | 19.1 µM (inactive) | 1.61 µM (inactive) | 10 µM (inactive) | 13.3 µM (inactive) | 12.9 µM (inactive)
O=C1NC(O)c2cc3ccccc3cc2O1 (stereo not given) | > 100 µM (inactive) | > 100 µM (inactive) | 30.5 µM (inactive) | 38.5 µM (inactive) | > 100 µM (inactive) | 31.1 µM (inactive) | 20 µM (inactive) | 56.5 µM (inactive) | 51.4 µM (inactive) | > 100 µM (inactive) | 61.7 µM (inactive) | > 100 µM (inactive) | > 100 µM (inactive) | 46.6 µM (inactive) | 34.4 µM (inactive) | 28 µM (inactive) | 24.3 µM (inactive) | > 100 µM (inactive) | 26.4 µM (inactive) | 39.2 µM (inactive)
COc1ccc2c(c1)CCN1CCCc3ccccc3C21 (stereo not given) | 46.3 µM (inactive) | 23 µM (inactive) | 32.1 µM (inactive) | 22.3 µM (inactive) | 54.2 µM (inactive) | 36.9 µM (inactive) | 30.9 µM (inactive) | 58.5 µM (inactive) | 41.3 µM (inactive) | > 100 µM (inactive) | 36 µM (inactive) | 27.6 µM (inactive) | 33.7 µM (inactive) | 22.4 µM (inactive) | 23.1 µM (inactive) | 17.5 µM (inactive) | 31.8 µM (inactive) | 65.8 µM (inactive) | 79.3 µM (inactive) | 91 µM (inactive)
OCCO[P+]1(OCCO)n2c3ccc2C(c2ccccc2)=C2C=CC(=N2)C(c2ccccc2)=c2ccc(n21)=C(c1ccccc1)C1=NC(=C3c2ccccc2)C=C1 | 0.0561 µM (active) | 0.0195 µM (active) | 0.0545 µM (active) | < 0.01 µM (active) | 0.251 µM (active) | 0.0299 µM (active) | 0.0218 µM (active) | 0.0296 µM (active) | 3.28 µM (inactive) | 0.104 µM (active) | 0.0263 µM (active) | 0.013 µM (active) | 0.0247 µM (active) | 0.022 µM (active) | 0.042 µM (active) | 0.0335 µM (active) | < 0.0106 µM (active) | 0.182 µM (active) | 0.0218 µM (active) | 0.0767 µM (active)
CC(C)OC(=O)[C@@H](O)[C@H](CO)C1=CC([Si](C)(C)c2ccccc2)=CON1 | > 100 µM (inactive) | > 100 µM (inactive) | > 100 µM (inactive) | > 100 µM (inactive) | > 100 µM (inactive) | > 100 µM (inactive) | > 100 µM (inactive) | > 100 µM (inactive) | > 100 µM (inactive) | > 100 µM (inactive) | > 100 µM (inactive) | > 100 µM (inactive) | > 100 µM (inactive) | > 100 µM (inactive) | > 100 µM (inactive) | > 100 µM (inactive) | > 100 µM (inactive) | > 100 µM (inactive) | > 100 µM (inactive) | > 100 µM (inactive)
CCOC(=O)c1c2c(n3ccccc13)C(=O)c1ccccc1C2=O | > 100 µM (inactive) | 2.55 µM (inactive) | > 100 µM (inactive) | > 100 µM (inactive) | 17.9 µM (inactive) | > 100 µM (inactive) | > 100 µM (inactive) | 10.7 µM (inactive) | > 100 µM (inactive) | > 100 µM (inactive) | 31.3 µM (inactive) | 26.5 µM (inactive) | > 100 µM (inactive) | > 100 µM (inactive) | > 100 µM (inactive) | 36.7 µM (inactive) | > 100 µM (inactive) | 48.1 µM (inactive) | > 100 µM (inactive) | > 100 µM (inactive)
COc1cc(C2c3cc4c(cc3OC(N3CCOCC3)C2C)OCO4)cc(OC)c1OC(C)=O (stereo not given) | 11.3 µM (inactive) | 11.9 µM (inactive) | 13 µM (inactive) | 26.3 µM (inactive) | 26.6 µM (inactive) | 13.5 µM (inactive) | 7.52 µM (inactive) | 4.46 µM (inactive) | 4.69 µM (inactive) | 47.5 µM (inactive) | 39.3 µM (inactive) | 19.3 µM (inactive) | 5.35 µM (inactive) | 23.6 µM (inactive) | 18 µM (inactive) | 13.3 µM (inactive) | 6.25 µM (inactive) | 11.6 µM (inactive) | 8.07 µM (inactive) | 26 µM (inactive)
CC(C)=CCC/C(C)=C/CC/C(C)=C/CCN(C)CCO | 15.1 µM (inactive) | 2.03 µM (inactive) | 3.44 µM (inactive) | 2.96 µM (inactive) | 10.8 µM (inactive) | 6.47 µM (inactive) | 4.12 µM (inactive) | 1.89 µM (inactive) | 12.4 µM (inactive) | 16.8 µM (inactive) | 12.2 µM (inactive) | 1.72 µM (inactive) | 2.75 µM (inactive) | 3.15 µM (inactive) | 10.9 µM (inactive) | 4.25 µM (inactive) | 6.35 µM (inactive) | 7.59 µM (inactive) | 13.8 µM (inactive) | 11.7 µM (inactive)
COc1ccc(C(=C(I)c2ccccc2)c2ccc(OC)cc2)cc1 | > 100 µM (inactive) | > 100 µM (inactive) | > 100 µM (inactive) | > 100 µM (inactive) | > 100 µM (inactive) | > 100 µM (inactive) | 51.3 µM (inactive) | 49.8 µM (inactive) | > 100 µM (inactive) | > 100 µM (inactive) | > 100 µM (inactive) | > 100 µM (inactive) | > 100 µM (inactive) | > 100 µM (inactive) | > 100 µM (inactive) | > 100 µM (inactive) | > 100 µM (inactive) | > 100 µM (inactive) | > 100 µM (inactive) | > 100 µM (inactive)
CC(O)C1CC1(CO)CNc1cc(Cl)nc(N)n1 (stereo not given) | > 100 µM (inactive) | > 100 µM (inactive) | > 100 µM (inactive) | > 100 µM (inactive) | > 100 µM (inactive) | > 100 µM (inactive) | > 100 µM (inactive) | > 100 µM (inactive) | > 100 µM (inactive) | > 100 µM (inactive) | > 100 µM (inactive) | > 100 µM (inactive) | > 100 µM (inactive) | > 100 µM (inactive) | > 100 µM (inactive) | > 100 µM (inactive) | > 100 µM (inactive) | > 100 µM (inactive) | > 100 µM (inactive) | > 100 µM (inactive)
Nc1nc(N)c2ncn(-c3ccc(Br)cc3)c2n1 | 15 µM (inactive) | 37.7 µM (inactive) | 11.6 µM (inactive) | 11.4 µM (inactive) | 13.3 µM (inactive) | 23 µM (inactive) | 25.5 µM (inactive) | 32.5 µM (inactive) | 10.7 µM (inactive) | 5.45 µM (inactive) | 15.4 µM (inactive) | > 50.5 µM (inactive) | 14.4 µM (inactive) | 27 µM (inactive) | 23.8 µM (inactive) | 14.7 µM (inactive) | 0.119 µM (active) | 14.2 µM (inactive) | 16.2 µM (inactive) | 14.6 µM (inactive)
Cc1nc2ccc(Cl)cc2c2c1CCN2c1ccc(F)cc1 | > 100 µM (inactive) | 23.6 µM (inactive) | 4.72 µM (inactive) | 8.24 µM (inactive) | 17.7 µM (inactive) | 11 µM (inactive) | 5.75 µM (inactive) | 7.87 µM (inactive) | 13 µM (inactive) | 45.2 µM (inactive) | 58.3 µM (inactive) | 9.95 µM (inactive) | 25.8 µM (inactive) | 8.73 µM (inactive) | 7.48 µM (inactive) | 22.3 µM (inactive) | 13.1 µM (inactive) | 17.1 µM (inactive) | 21.8 µM (inactive) | 22.5 µM (inactive)
